The target of the assay is CXCR3 (Macaca fascicularis, UniProt A0A2K5UV19). Briefly: functional cellular assay measuring calcium flux in CXCR3 transfected cells (block of CXCR3/IP-10 interaction). It is filed as cell-based, Cyno. To be noted: IP-10 induced intracellular calcium flux; Cyno-CHO cells stably expressing recombinant CXCR3 and G-alpha-16; IP-10 at EC80; read-out: IC50. The procedure, abridged:
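Inhibition of IP-10-induced calcium flux at 10 microM final compound, 15 min room-temperature preincubation, with IP-10 at EC80. Cells: CHO stably transfected with cynomolgus CXCR3 plus G-alpha-16, dye-loaded (Ca-4, 2 mM probenecid, HBSS/HEPES pH 7.4) 1 h at 37° C.; fluorescence ex 480/em 540 nm.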
A general note: A change in cytosolic calcium serves as a functional read-out for many receptors and channels.

CXCR3, sequence (A0A2K5UV19 entry or part of it): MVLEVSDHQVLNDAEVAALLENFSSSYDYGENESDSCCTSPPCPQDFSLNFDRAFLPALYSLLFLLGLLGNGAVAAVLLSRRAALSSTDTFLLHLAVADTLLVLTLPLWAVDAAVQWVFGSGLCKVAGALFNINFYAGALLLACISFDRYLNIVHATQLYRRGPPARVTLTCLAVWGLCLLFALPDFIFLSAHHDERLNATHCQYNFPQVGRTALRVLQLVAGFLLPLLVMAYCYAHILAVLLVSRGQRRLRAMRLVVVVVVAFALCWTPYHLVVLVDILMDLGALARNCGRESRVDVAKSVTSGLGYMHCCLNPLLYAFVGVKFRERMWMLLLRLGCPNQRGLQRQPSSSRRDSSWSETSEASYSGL

The IC50 is the midpoint of a concentration-inhibition curve. For the compound `Cc1cc(C)n(CC(=O)N2CCN(c3ccc(F)cc3C(=O)Nc3nc4c(s3)CN(C)CC4)C[C@H]2C)n1` [2-{(3R)-4-[(3,5-dimethyl-1H-pyrazol-1-yl)acetyl]-3-methylpiperazin-1-yl}-5-fluoro-N-(5-methyl-4,5,6,7-tetrahydro[1,3]thiazolo[5,4-c]pyridin-2-yl)benzamide], the concentration for half-maximal inhibition (IC50) was 15 nM.

As for `COc1cc(NC(=O)c2cc(F)ccc2N2CCN(C(=O)Cn3nc(C)cc3C)[C@@H](C)C2)ccn1` [2-{(3S)-4-[(3,5-dimethyl-1H-pyrazol-1-yl)acetyl]-3-methylpiperazin-1-yl}-5-fluoro-N-(2-methoxypyridin-4-yl)benzamide], the 50% inhibitory concentration (IC50) stood at 12 nM. The result for `Cc1cc(C)n(CC(=O)N2CCN(c3ccc(F)cc3C(=O)Nc3nc4c(s3)CN(C)CC4)C[C@@H]2C)n1` [2-{(3S)-4-[(3,5-dimethyl-1H-pyrazol-1-yl)acetyl]-3-methylpiperazin-1-yl}-5-fluoro-N-(5-methyl-4,5,6,7-tetrahydro[1,3]thiazolo[5,4-c]pyridin-2-yl)benzamide] reads 12 nM; that for `Cc1cc(C)n(CC(=O)N2CCN(c3ccccc3-c3ccc(C#N)cc3)CC2)n1` [2′-{4-[2-(3,5-Dimethyl-pyrazol-1-yl)-acetyl]-piperazin-1-yl}-biphenyl-4-carbonitrile], 100 nM; that for `COc1ccc(C(=O)NCC(=O)N2CCN(c3ccccc3-c3cnc(N4CCOCC4)nc3)CC2)cc1OC` [3,4-Dimethoxy-N-(2-{4-[2-(2-morpholin-4-yl-pyrimidin-5-yl)-phenyl]-piperazin-1-yl}-2-oxo-ethyl)-benzamide], 68 nM.

Regarding `COc1ncc(-c2cc(C#N)ccc2N2CCN(C(=O)Cn3ccc4cccnc43)CC2)cn1` [3-(2-Methoxy-pyrimidin-5-yl)-4-[4-(2-pyrrolo[2,3-b]pyridin-1-yl-acetyl)-piperazin-1-yl]-benzonitrile], the half-inhibitory concentration (IC50) is 7 nM.

For `CNc1ncc(-c2cc(C#N)ccc2N2CCN(C(=O)Cn3ccc4cccnc43)CC2)cn1` [3-(2-Methylamino-pyrimidin-5-yl)-4-[4-(2-pyrrolo[2,3-b]pyridin-1-yl-acetyl)-piperazin-1-yl]-benzonitrile], the IC50 is 8 nM. The result for `CSc1ncc(-c2cc(C#N)ccc2N2CCN(C(=O)Cn3ccc4cccnc43)CC2)cn1` [3-(2-Methylsulfanyl-pyrimidin-5-yl)-4-[4-(2-pyrrolo[2,3-b]pyridin-1-yl-acetyl)-piperazin-1-yl]-benzonitrile] reads 4 nM. The figure for `N#Cc1ccc(N2CCN(C(=O)Cn3ccc4cccnc43)CC2)c(-c2cnc(N3CCOCC3)nc2)c1` [3-(2-Morpholin-4-yl-pyrimidin-5-yl)-4-[4-(2-pyrrolo[2,3-b]pyridin-1-yl-acetyl)-piperazin-1-yl]-benzonitrile] is 8 nM; for `COc1ncc(-c2cc(C#N)ccc2N2CCN(C(=O)Cn3nc(C)cc3C)CC2)cn1` [4-{4-[2-(3,5-Dimethyl-pyrazol-1-yl)-acetyl]-piperazin-1-yl}-3-(2-methoxy-pyrimidin-5-yl)-benzonitrile] it is 150 nM.

Regarding `CSc1ncc(-c2cc(C#N)ccc2N2CCN(C(=O)Cn3nc(C)cc3C)CC2)cn1` [4-{4-[2-(3,5-Dimethyl-pyrazol-1-yl)-acetyl]-piperazin-1-yl}-3-(2-methylsulfanyl-pyrimidin-5-yl)-benzonitrile], the concentration for half-maximal inhibition (IC50) worked out at 36 nM. The result for `Cc1cc(C)n(CC(=O)N2CCN(c3ccc(C#N)cc3-c3cnc(N4CCOCC4)nc3)CC2)n1` [4-{4-[2-(3,5-Dimethyl-pyrazol-1-yl)-acetyl]-piperazin-1-yl}-3-(2-morpholin-4-yl-pyrimidin-5-yl)-benzonitrile] reads 18 nM; that for `Cc1cn(CC(=O)N2CCN(c3ccccc3-c3ccc(C#N)nc3)CC2)c(C)n1` [5-(2-{4-[2-(2,4-Dimethyl-imidazol-1-yl)-acetyl]-piperazin-1-yl}-phenyl)-pyridine-2-carbonitrile], 47 nM; that for `Cc1cc(C)n(CC(=O)N2CCN(c3ccccc3-c3ccc(C#N)nc3)CC2)n1` [5-(2-{4-[2-(3,5-Dimethyl-pyrazol-1-yl)-acetyl]-piperazin-1-yl}-phenyl)-pyridine-2-carbonitrile], 18 nM. The figure for `Cc1cc(C)n(CC(=O)N2CCN(c3ccccc3-c3cnc(C#N)nc3)CC2)n1` [5-(2-{4-[2-(3,5-Dimethyl-pyrazol-1-yl)-acetyl]-piperazin-1-yl}-phenyl)-pyrimidine-2-carbonitrile] is 43 nM; for `Cc1cc(C(F)(F)F)nn1CC(=O)N1CCN(c2ccccc2-c2ccc(C#N)nc2)CC1` [5-(2-{4-[2-(5-Methyl-3-trifluoromethyl-pyrazol-1-yl)-acetyl]-piperazin-1-yl}-phenyl)-pyridine-2-carbonitrile] it is 71 nM. With `N#Cc1ccc(-c2ccccc2N2CCN(C(=O)CNc3nccs3)CC2)cn1` [5-(2-{4-[2-(Thiazol-2-ylamino)-acetyl]-piperazin-1-yl}-phenyl)-pyridine-2-carbonitrile], the 50% inhibitory concentration (IC50) was determined as 47 nM. The figure for `C[C@@H]1CN(c2ccc(F)cc2C(=O)Nc2nc3c(s2)CN(C)CC3)CCN1C(=O)Cn1ccc2cccnc21` [5-fluoro-2-[(3R)-3-methyl-4-(1H-pyrrolo[2,3-b]pyridin-1-ylacetyl)piperazin-1-yl]-N-(5-methyl-4,5,6,7-tetrahydro[1,3]thiazolo[5,4-c]pyridin-2-yl)benzamide] is 20 nM. The figure for `COc1cc(NC(=O)c2cc(F)ccc2N2CCN(C(=O)Cn3cnc4cccnc43)[C@H](C)C2)ccn1` [5-fluoro-2-[(3R)-4-(3H-imidazo[4,5-b]pyridin-3-ylacetyl)-3-methylpiperazin-1-yl]-N-(2-methoxypyridin-4-yl)benzamide] is 7 nM. The figure for `C[C@@H]1CN(c2ccc(F)cc2C(=O)Nc2nc3c(s2)CN(C)CC3)CCN1C(=O)Cn1cnc2cccnc21` [5-fluoro-2-[(3R)-4-(3H-imidazo[4,5-b]pyridin-3-ylacetyl)-3-methylpiperazin-1-yl]-N-(5-methyl-4,5,6,7-tetrahydro[1,3]thiazolo[5,4-c]pyridin-2-yl)benzamide] is 15 nM; for `C[C@H]1CN(c2ccc(F)cc2C(=O)Nc2nc3c(s2)CN(C)CC3)CCN1C(=O)Cn1ccc2cccnc21` [5-fluoro-2-[(3S)-3-methyl-4-(1H-pyrrolo[2,3-b]pyridin-1-ylacetyl)piperazin-1-yl]-N-(5-methyl-4,5,6,7-tetrahydro[1,3]thiazolo[5,4-c]pyridin-2-yl)benzamide] it is 17 nM. Regarding `COc1cc(NC(=O)c2cc(F)ccc2N2CCN(C(=O)Cn3cnc4cccnc43)[C@@H](C)C2)ccn1` [5-fluoro-2-[(3S)-4-(3H-imidazo[4,5-b]pyridin-3-ylacetyl)-3-methylpiperazin-1-yl]-N-(2-methoxypyridin-4-yl)benzamide], the concentration for half-maximal inhibition (IC50) was found to be 11 nM. The figure for `C[C@H]1CN(c2ccc(F)cc2C(=O)Nc2nc3c(s2)CN(C)CC3)CCN1C(=O)Cn1cnc2cccnc21` [5-fluoro-2-[(3S)-4-(3H-imidazo[4,5-b]pyridin-3-ylacetyl)-3-methylpiperazin-1-yl]-N-(5-methyl-4,5,6,7-tetrahydro[1,3]thiazolo[5,4-c]pyridin-2-yl)benzamide] is 15 nM.

(Values after US8450317B2, “CXCR3 receptor antagonists” (Boehringer Ingelheim International GmbH, priority 2009, dated 2013).)
